Reference: ChEMBL document CHEMBL3991601, “The target landscape of clinical kinase drugs” (Science, 2017)
Activity calls are given as the source filed them. Rule as the data show it, for most assays here: actives have a measured Kd and inactives only a lower limit.

What was measured:
[1] = molecular target: T1, Serine/threonine-protein kinase Chk1 (Homo sapiens, UniProt O14757)
T1 sequence (O14757 whole entry): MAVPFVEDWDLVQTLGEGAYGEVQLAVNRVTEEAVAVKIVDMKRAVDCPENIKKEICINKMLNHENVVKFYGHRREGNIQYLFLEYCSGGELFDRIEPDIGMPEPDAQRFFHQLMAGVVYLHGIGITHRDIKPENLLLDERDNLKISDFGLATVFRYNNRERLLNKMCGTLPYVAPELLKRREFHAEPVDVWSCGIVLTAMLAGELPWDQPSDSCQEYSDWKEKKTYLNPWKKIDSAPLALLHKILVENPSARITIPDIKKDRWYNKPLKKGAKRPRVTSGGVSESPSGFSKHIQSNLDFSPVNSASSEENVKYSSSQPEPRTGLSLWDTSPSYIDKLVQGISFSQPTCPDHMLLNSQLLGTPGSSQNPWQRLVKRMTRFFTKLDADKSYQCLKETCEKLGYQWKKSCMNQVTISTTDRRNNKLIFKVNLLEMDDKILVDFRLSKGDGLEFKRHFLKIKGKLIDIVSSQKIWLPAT

Ephrin type-B receptor 4 = molecular target: T2, Ephrin type-B receptor 4 (Homo sapiens, UniProt P54760)
T2 sequence (P54760 whole entry): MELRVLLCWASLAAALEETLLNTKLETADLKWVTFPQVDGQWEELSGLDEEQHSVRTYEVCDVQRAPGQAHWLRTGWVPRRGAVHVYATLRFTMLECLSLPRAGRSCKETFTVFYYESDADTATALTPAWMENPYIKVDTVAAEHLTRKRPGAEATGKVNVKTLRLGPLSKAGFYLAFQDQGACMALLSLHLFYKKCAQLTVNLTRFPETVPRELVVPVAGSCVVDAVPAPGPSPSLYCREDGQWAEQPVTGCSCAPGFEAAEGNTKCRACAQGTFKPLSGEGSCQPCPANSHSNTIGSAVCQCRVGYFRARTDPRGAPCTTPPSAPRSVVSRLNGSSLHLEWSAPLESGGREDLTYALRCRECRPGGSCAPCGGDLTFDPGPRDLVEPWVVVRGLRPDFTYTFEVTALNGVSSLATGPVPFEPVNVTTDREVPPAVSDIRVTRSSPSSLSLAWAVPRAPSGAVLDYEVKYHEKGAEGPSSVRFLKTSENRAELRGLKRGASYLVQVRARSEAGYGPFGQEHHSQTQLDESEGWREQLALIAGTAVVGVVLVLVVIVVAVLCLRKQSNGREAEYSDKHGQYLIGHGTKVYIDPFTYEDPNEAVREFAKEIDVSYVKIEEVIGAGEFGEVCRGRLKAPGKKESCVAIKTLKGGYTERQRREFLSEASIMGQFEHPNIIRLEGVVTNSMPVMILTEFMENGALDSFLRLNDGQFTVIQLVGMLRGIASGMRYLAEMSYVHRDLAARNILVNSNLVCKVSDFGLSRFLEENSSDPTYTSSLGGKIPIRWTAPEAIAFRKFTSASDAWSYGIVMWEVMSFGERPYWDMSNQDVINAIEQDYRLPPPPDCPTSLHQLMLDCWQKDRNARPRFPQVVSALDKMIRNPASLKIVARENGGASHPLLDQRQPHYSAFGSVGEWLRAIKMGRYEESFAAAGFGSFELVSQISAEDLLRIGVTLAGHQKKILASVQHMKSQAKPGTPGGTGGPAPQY

[2] = molecular target: T3, Mitogen-activated protein kinase kinase kinase 6 (Homo sapiens, UniProt O95382)
T3 sequence (O95382 whole entry): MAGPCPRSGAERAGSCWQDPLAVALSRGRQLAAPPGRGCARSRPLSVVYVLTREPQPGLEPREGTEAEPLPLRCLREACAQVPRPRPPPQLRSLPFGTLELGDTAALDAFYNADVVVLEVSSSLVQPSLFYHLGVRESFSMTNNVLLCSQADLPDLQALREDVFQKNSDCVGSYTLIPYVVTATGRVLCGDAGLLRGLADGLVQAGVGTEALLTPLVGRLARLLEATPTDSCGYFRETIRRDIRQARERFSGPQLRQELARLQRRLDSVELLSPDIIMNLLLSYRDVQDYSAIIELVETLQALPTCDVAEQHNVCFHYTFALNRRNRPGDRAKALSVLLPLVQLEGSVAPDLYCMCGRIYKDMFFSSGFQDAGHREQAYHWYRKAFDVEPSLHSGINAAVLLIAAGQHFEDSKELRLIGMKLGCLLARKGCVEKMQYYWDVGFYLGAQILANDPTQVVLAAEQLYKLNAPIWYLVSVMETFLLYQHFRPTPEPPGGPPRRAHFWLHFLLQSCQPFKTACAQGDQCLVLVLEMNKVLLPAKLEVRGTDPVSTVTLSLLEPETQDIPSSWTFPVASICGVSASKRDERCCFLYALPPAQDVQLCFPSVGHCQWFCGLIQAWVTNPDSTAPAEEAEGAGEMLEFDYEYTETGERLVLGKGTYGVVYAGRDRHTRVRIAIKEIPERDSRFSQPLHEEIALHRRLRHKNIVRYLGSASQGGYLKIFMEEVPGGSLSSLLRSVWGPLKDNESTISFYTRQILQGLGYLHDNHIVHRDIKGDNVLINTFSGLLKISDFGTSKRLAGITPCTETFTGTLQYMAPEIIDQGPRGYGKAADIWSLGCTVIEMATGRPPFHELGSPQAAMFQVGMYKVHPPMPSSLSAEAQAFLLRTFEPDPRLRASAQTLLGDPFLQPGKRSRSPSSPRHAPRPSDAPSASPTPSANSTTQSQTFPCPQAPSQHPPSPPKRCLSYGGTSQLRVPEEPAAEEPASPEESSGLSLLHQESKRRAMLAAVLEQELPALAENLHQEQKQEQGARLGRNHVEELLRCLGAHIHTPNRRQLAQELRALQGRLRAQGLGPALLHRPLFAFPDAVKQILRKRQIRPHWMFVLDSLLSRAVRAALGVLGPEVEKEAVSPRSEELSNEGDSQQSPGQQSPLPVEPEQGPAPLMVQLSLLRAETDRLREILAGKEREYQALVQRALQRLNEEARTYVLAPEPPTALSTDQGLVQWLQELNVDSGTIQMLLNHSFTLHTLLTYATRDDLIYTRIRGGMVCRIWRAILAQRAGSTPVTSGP
Also: in the data inactive means no Kd found up to 30 µM.

| Compound | Kd [1] | Kd (Ephrin type-B receptor 4) | Kd [2] |
| --- | --- | --- | --- |
| N[C@@H]1CCCN(c2c(/C=C3\SC(=O)NC3=O)cccc2-c2ccccc2)C1 | > 30 µM (inactive) | > 30 µM (inactive) | > 30 µM (inactive) |
| O=C(c1ccc(F)c(F)c1Nc1ccc(I)cc1F)N1CC(O)([C@@H]2CCCCN2)C1 [COBIMETINIB] | > 30 µM (inactive) | > 30 µM (inactive) | > 30 µM (inactive) |
| CNC(=O)c1ccc(C)c(-n2c(C)cc(OCc3ccc(F)cc3F)c(Br)c2=O)c1 [PH-797804] | > 30 µM (inactive) | > 30 µM (inactive) | > 30 µM (inactive) |
| CNC(=O)c1cc(Oc2ccc(NC(=O)Nc3ccc(Cl)c(C(F)(F)F)c3)c(F)c2)ccn1 [REGORAFENIB] | > 30 µM (inactive) | > 30 µM (inactive) | > 30 µM (inactive) |
| Cc1ccc(NC(=O)c2ccc(CN3CC[C@H](N(C)C)C3)c(C(F)(F)F)c2)cc1Nc1nccc(-c2cncnc2)n1 [BAFETINIB] | > 30 µM (inactive) | 1.3 µM (active) | > 30 µM (inactive) |
| Cn1cc(-c2ccc(F)c(C(F)(F)F)c2)nc1C1CCN(c2ncnc3[nH]ncc23)CC1 [LY-2584702] | > 30 µM (inactive) | > 30 µM (inactive) | > 30 µM (inactive) |
| CCS(=O)(=O)N1CC(CC#N)(n2cc(-c3ncnc4[nH]ccc34)cn2)C1 [BARICITINIB] | > 30 µM (inactive) | > 30 µM (inactive) | > 30 µM (inactive) |
| COc1cc(OC)c(/C=C/S(=O)(=O)Cc2ccc(OC)c(NCC(=O)O)c2)c(OC)c1 [RIGOSERTIB] | > 30 µM (inactive) | > 30 µM (inactive) | > 30 µM (inactive) |
| Cc1c(F)cc(C(=O)NC2CC2)cc1-c1ccc(C(=O)NCC(C)(C)C)cn1 [LOSMAPIMOD] | > 30 µM (inactive) | > 30 µM (inactive) | > 30 µM (inactive) |
| CC[C@@H]1C(=O)N(C)c2cnc(Nc3ccc(C(=O)N[C@H]4CC[C@H](N5CCN(CC6CC6)CC5)CC4)cc3OC)nc2N1C(C)C [VOLASERTIB] | > 30 µM (inactive) | > 30 µM (inactive) | > 30 µM (inactive) |
| C[C@@H](c1ccc2nccn2c1)n1nnc2ncc(-c3cnn(C)c3)nc21 [SAVOLITINIB] | > 30 µM (inactive) | > 30 µM (inactive) | > 30 µM (inactive) |
| COCCNCc1ccc(-c2cc3nccc(Oc4ccc(NC(=S)NC(=O)Cc5ccc(F)cc5)cc4F)c3s2)nc1 [GLESATINIB] | > 30 µM (inactive) | > 30 µM (inactive) | > 30 µM (inactive) |
| CCn1c(=O)c(-c2cc[nH]n2)cc2c(C)nc(N)nc21 [VOXTALISIB] | > 30 µM (inactive) | > 30 µM (inactive) | > 30 µM (inactive) |
| COC(=O)[C@@]1(O)C[C@H]2O[C@]1(C)n1c3ccccc3c3c4c(c5c6ccccc6n2c5c31)C(=O)NC4 [K-252A] | 0.122 µM (active) | > 30 µM (inactive) | 0.335 µM (active) |
| CN(C)C(=O)c1cc2cnc(Nc3ccc(N4CCNCC4)cn3)nc2n1C1CCCC1 [RIBOCICLIB] | > 30 µM (inactive) | > 30 µM (inactive) | > 30 µM (inactive) |
| Cc1cc2c(F)c(Oc3ncnn4cc(OC[C@@H](C)OC(=O)[C@H](C)N)c(C)c34)ccc2[nH]1 [BRIVANIB ALANINATE] | > 30 µM (inactive) | > 30 µM (inactive) | > 30 µM (inactive) |
| Cc1ccc(-n2nc(C(C)(C)C)cc2NC(=O)NCc2cc(F)ccc2Oc2ccc3c(cnn3CCO)c2)cc1 [PEXMETINIB] | > 30 µM (inactive) | 5.21 µM | > 30 µM (inactive) |

The next lines start with the values.

| Kd [1] | Kd (Ephrin type-B receptor 4) | Kd [2] | Compound |
| --- | --- | --- | --- |
| > 30 µM (inactive) | > 30 µM (inactive) | > 30 µM (inactive) | O=C1NC(=O)/C(=C/c2ccc3nccc(-c4ccncc4)c3c2)S1 [GSK-1059615] |
| > 30 µM (inactive) | > 30 µM (inactive) | > 30 µM (inactive) | O=C(Nc1ccc(-c2ccnc(Nc3ccc(N4CCOCC4)cc3)n2)cc1)C1CCCN1 (centres undefined) [XL-019] |
| > 30 µM (inactive) | > 30 µM (inactive) | > 30 µM (inactive) | COc1cc(CCc2cc(NC(=O)c3ccc(N4C[C@@H](C)N[C@@H](C)C4)cc3)n[nH]2)cc(OC)c1 [AZD-4547] |
| > 30 µM (inactive) | > 30 µM (inactive) | > 30 µM (inactive) | CN1CCC(CNc2ccc3ncc(-c4cccc(OC(F)(F)F)c4)n3n2)CC1 [SGI-1776] |
| > 30 µM (inactive) | > 30 µM (inactive) | > 30 µM (inactive) | Cc1cc([C@@H](C)Nc2ccccc2C(=O)O)c2nc(N3CCOCC3)cc(=O)n2c1 [AZD-6482] |
| > 30 µM (inactive) | > 30 µM (inactive) | > 30 µM (inactive) | COc1ccc(-c2ccc3c(N4CCOC[C@@H]4C)nc(N4CCOC[C@@H]4C)nc3n2)cc1CO [AZD-8055] |
